These results are taken from US7652018B2, “Imidazolidin-2-one derivatives useful as PR modulators” (Wyeth LLC, priority 2006, dated 2010).

One series deals with T1, progesterone receptor (Homo sapiens, UniProt P06401).
T1 construct: determining a compound's effect on alkaline phosphatase activity in T47D cells; endogenous in cells; host or cells: T47D cells
T1 sequence (P06401 1-933): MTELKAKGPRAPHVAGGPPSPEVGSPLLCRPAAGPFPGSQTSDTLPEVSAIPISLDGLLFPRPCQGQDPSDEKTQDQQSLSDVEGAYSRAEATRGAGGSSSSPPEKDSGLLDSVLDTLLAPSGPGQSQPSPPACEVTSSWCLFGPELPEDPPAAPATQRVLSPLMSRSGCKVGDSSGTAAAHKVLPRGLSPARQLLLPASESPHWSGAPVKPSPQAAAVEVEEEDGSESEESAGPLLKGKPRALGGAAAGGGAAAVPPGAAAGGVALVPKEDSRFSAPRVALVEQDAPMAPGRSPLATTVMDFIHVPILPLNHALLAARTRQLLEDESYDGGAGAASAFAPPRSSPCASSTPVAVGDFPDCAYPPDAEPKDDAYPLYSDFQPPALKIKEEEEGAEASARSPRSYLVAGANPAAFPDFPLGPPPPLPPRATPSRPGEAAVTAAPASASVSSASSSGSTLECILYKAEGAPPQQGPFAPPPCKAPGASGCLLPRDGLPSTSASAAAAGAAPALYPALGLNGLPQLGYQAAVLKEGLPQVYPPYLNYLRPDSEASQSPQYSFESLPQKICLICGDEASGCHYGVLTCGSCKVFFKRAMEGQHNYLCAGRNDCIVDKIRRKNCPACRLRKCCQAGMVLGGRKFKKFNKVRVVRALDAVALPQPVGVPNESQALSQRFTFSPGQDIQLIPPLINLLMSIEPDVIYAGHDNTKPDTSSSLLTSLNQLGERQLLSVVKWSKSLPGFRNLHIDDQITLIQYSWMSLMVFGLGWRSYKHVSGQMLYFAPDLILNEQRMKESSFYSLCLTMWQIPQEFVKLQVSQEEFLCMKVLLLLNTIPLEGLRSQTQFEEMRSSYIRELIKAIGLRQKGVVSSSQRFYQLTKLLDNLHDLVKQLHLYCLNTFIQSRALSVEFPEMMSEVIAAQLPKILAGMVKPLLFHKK
Briefly: Alkaline phosphatase activity in T47D cells (progestin antagonist mode). It counts as cell-based. Particulars: in the presence of 1 nM progesterone, 24 h, read-out: T47D Alkaline Phosphatase Activity IC50 (nM) or % inhibition. Here is the method:
(1) Effects of Progestins and Antiprogestins on Alkaline Phosphatase Activity in T47D Cells
PURPOSE: To identify progestins or antiprogestins by determining a compound's effect on alkaline phosphatase activity in T47D cells.
Culture medium: • DMEM:F12 (1:1) (GIBCO, BRL) supplemented with 5% (v/v) charcoal stripped fetal bovine serum (not heat-inactivated), 100 U/mL penicillin, 100 μg/mL streptomycin, and 2 mM the GlutaMax™ reagent (GIBCO, BRL).
Alkaline phosphatase assay buffer: • I. 0.1M Tris-HCl, pH 9.8, containing 0.2% the Triton® X-100 reagent • II. 0.1M Tris-HCl, pH 9.8, containing 4 mM p-nitrophenyl phosphate (Sigma). B. Cell Culture and Treatment:
Frozen T47D cells were thawed in a 37° C. water bath and diluted to 280,000 cells/mL in culture medium. To each well in a 96-well plate (Falcon, Becton Dickinson Labware), 180 μL of diluted cell suspension was added.
Twenty μL of reference or test compounds diluted in the culture medium was then added to each well. When testing for progestin antagonist activity, reference antiprogestins or test compounds were added in the presence of 1 nM progesterone. The cells were incubated at 37° C. in a 5% CO2/humidified atmosphere for 24 h.
NOTE: For high throughput screening, one concentration of each compound was tested at 0.3 μg/mL. Based on an average molecular weight of 300 g/mol for the compounds in the library, the concentration was approximately 1 μM. Subsequently, active compounds were tested in dose response assays to determine EC50 and IC50. C. Alkaline Phosphatase Enzyme Assay:
At the end of treatment, the medium was removed from the plate. Fifty μL of assay buffer I was added to each well. The plates were shaken in a titer plate shaker for 15 min. Then 150 μL of assay buffer II was added to each well. Optical density measurements were taken at 5 min intervals for 30 min at a test wavelength of 405 nm.
For reference and test compounds, a dose response curve was generated for dose (X-axis) vs. the rate of enzyme reaction (slope) (Y-axis). Square root-transformed data was used for analysis of variance and nonlinear dose response curve fitting for both agonist and antagonist modes. Huber weighting was used to down-weight the effects of outliers. EC50 or IC50 values were calculated from the retransformed values. JMP software (SAS Institute, Inc.) was used for both one-way analysis of variance and non-linear dose response analysis in both single dose and dose response studies.
Progesterone and trimegestone were reference progestins and RU486 was the reference antiprogestin. All reference compounds were run in full dose response curves and the EC50 and IC50 values were calculated.

The structures appear in SMILES notation.

The melting point is the temperature of the solid-liquid transition. As usually defined, the IC50 is the point on the concentration scale where inhibition reaches its midpoint.

Regarding `C[C@@H]1COC(=O)N1c1nc(-c2ccc(Br)cc2)cs1` [Example 1, (4R)-3-[4-(4-Bromophenyl)-1,3-thiazol-2-yl]-4-methyl-1,3-oxazolidin-2-one], the melting point is 197 to 199 °C.

Turning to `CCC1(CC)COC(=O)N1c1nc(-c2ccc(C#N)cc2)cs1` [Example 2, 4-[2-(4,4-Diethyl-2-oxo-1,3-oxazolidin-3-yl)-1,3-thiazol-4-yl]benzonitrile], the melting point was 145 to 147 °C.

`CC1(C)COC(=O)N1c1nc(-c2cccc(C#N)c2)cs1` [Example 3, 3-[2-(4,4-dimethyl-2-oxo-1,3-oxazolidin-3-yl)-1,3-thiazol-4-yl]benzonitrile] registered a melting point of 181 to 183 °C.

In the case of `O=C1NCCN1c1nc(-c2ccc(Br)cc2)cs1` [Example 4, 1-[4-(4-Bromophenyl)-1,3-thiazol-2-yl]imidazolidin-2-one], the melting point lay within 230 to 233 °C. Besides, the half-maximal inhibitory concentration (IC50) at progesterone receptor was 1070 nM.

Take `CN1CCN(c2nc(-c3ccc(Br)cc3)cs2)C1=O` [Example 5, 1-[4-(4-Bromophenyl)-1,3-thiazol-2-yl]-3-methylimidazolidin-2-one]: the IC50 at progesterone receptor was 733 nM.

Turning to `CN1CC(C)(C)N(c2nc(-c3ccc(C#N)cc3)cs2)C1=O` [Example 8, 4-[2-(3,5,5-Trimethyl-2-oxoimidazolidin-1-yl)-1,3-thiazol-4-yl]benzonitrile], the IC50 at progesterone receptor is 35.4 nM.

Take `CC1(C)CN(Cc2ccccc2)C(=O)N1c1nc(-c2ccc(C#N)cc2)cs1` [Example 9, 4-[2-(3-Benzyl-5,5-dimethyl-2-oxoimidazolidin-1-yl)-1,3-thiazol-4-yl]benzonitrile]: at progesterone receptor, the IC50 stood at 77.9 nM.
